Values quoted from earlier work in patent EP4101443A1, “HOT-MELT COATED PARTICLES WITH PH-DEPENDENT RELEASE” (HERMES PHARMA GmbH, priority 2021, dated 2022).
Converted amounts (≈) assume the structure as drawn.

Row | SMILES | solubility [mg/mL]
1 | CC(=O)Oc1ccccc1C(=O)O [ASA, acetylsalicylic acid] | 2.24 (≈ 12.4 mM)
2 | CC(=O)N[C@@H](CS)C(=O)O [NAC, N-acetylcysteine] | 200 (≈ 1230 mM)
